Reference: ChEMBL document CHEMBL3877274, “Preparation of novel ring-A fused azole derivatives of betulin and evaluation of their cytotoxicity” (Eur J Med Chem, 2017)
The source made the active and inactive calls. The rule behind the calls is not given here.

What was measured:
[1] = Cytotoxicity against human A549 cells measured after 72 hrs by MTT assay; format: functional, cell-based; settings: A549, 72 h
[2] = Cytotoxicity against human MS cells measured after 72 hrs by MTT assay; format: functional, cell-based
[3] = Cytotoxicity against human Hep2 cells measured after 72 hrs by MTT assay; format: functional, cell-based; settings: HEp-2, 72 h
[4] = Cytotoxicity against human HCT116 cells measured after 72 hrs by MTT assay; format: functional, cell-based; settings: HCT-116, 72 h
[5] = Cytotoxicity against human TE32 cells measured after 72 hrs by MTT assay; format: functional, cell-based; settings: RD
[6] = Cytotoxicity against human HEK293 cells measured after 72 hrs by MTT assay; format: toxicity, cell-based
[7] = Toxicity in po or ip dosed mouse administered as single dose measured after 14 days; format: organism-based; settings: in vivo
HCT-116 [8] = test: Cytotoxicity against human HCT116 cells at 5.7 uM by MTT assay; format: functional, cell-based; settings: TDE = time-dependent effect
HCT-116 [9] = test: Induction of apoptosis in human HCT116 cells assessed as mitochondrial membrane permeability loss by measuring rhodamine 123 accumulation at 5.7 uM measured after 18 hrs by fluorescence inverted microscopic analysis; format: functional, cell-based
HCT-116 [10] = test: Induction of apoptosis in human HCT116 cells assessed as chromatin condensation at 5.7 uM measured after 18 hrs by Hoechst 33258 staining based fluorescence inverted microscopic analysis; format: functional, cell-based
HCT-116 [11] = test: Induction of apoptosis in human HCT116 cells assessed as viable cells at 5.7 uM measured after 18 hrs by Annexin-V FITC/propidium iodide staining based flow cytometry (reference value: 92.83%); format: functional; settings: HCT-116, 18 h, read-out: Activity
HCT-116 [12] = test: Induction of apoptosis in human HCT116 cells assessed as early apoptotic cells at 5.7 uM measured after 18 hrs by Annexin-V FITC/propidium iodide staining based flow cytometry (reference value: 3.92%); format: functional
HCT-116 [13] = test: Induction of apoptosis in human HCT116 cells assessed as late apoptotic cells at 5.7 uM measured after 18 hrs by Annexin-V FITC/propidium iodide staining based flow cytometry (reference value: 1.13%); format: functional
HCT-116 [14] = test: Induction of apoptosis in human HCT116 cells assessed as necrotic cells at 5.7 uM measured after 18 hrs by Annexin-V FITC/propidium iodide staining based flow cytometry (reference value: 2.12%); format: functional
HCT-116 [15] = test: Induction of apoptosis in human HCT116 cells assessed as increase in caspase-8 activity at 5.7 uM measured up to 24 hrs; format: functional, cell-based
HCT-116 [16] = test: Induction of apoptosis in human HCT116 cells assessed as increase in caspase-3/7 activity at 5.7 uM measured up to 24 hrs; format: functional, cell-based
HCT-116 [17] = test: Induction of apoptosis in human HCT116 cells assessed as increase in cck18 level at 5.7 uM measured after 18 hrs; format: functional, cell-based
HCT-116 [18] = test: Induction of apoptosis in human HCT116 cells assessed as appearance of half moon or crescent shape nuclei at 5.7 uM measured after 18 hrs by Hoechst 33258 staining based fluorescence inverted microscopic analysis; format: functional, cell-based
HCT-116 [19] = test: Induction of apoptosis in human HCT116 cells assessed as nuclear fragmentation at 5.7 uM measured after 18 hrs by Hoechst 33258 staining based fluorescence inverted microscopic analysis; format: functional, cell-based
HCT-116 [20] = test: Induction of apoptosis in human HCT116 cells assessed as formation of apoptotic bodies at 5.7 uM measured after 18 hrs by Hoechst 33258 staining based fluorescence inverted microscopic analysis; format: functional, cell-based
HCT-116 [21] = test: Induction of apoptosis in human HCT116 cells assessed as mitochondrial membrane permeability loss by measuring rhodamine 123 accumulation at 6.7 uM measured after 18 hrs by fluorescence inverted microscopic analysis; format: functional, cell-based
HCT-116 [22] = test: Induction of apoptosis in human HCT116 cells assessed as chromatin condensation at 6.7 uM measured after 18 hrs by Hoechst 33258 staining based fluorescence inverted microscopic analysis; format: functional, cell-based
HCT-116 [23] = test: Induction of apoptosis in human HCT116 cells assessed as viable cells at 6.7 uM measured after 18 hrs by Annexin-V FITC/propidium iodide staining based flow cytometry (reference value: 92.83%); format: functional; settings: HCT-116, 18 h, read-out: Activity
HCT-116 [24] = test: Induction of apoptosis in human HCT116 cells assessed as early apoptotic cells at 6.7 uM measured after 18 hrs by Annexin-V FITC/propidium iodide staining based flow cytometry (reference value: 3.92%); format: functional
HCT-116 [25] = test: Induction of apoptosis in human HCT116 cells assessed as late apoptotic cells at 6.7 uM measured after 18 hrs by Annexin-V FITC/propidium iodide staining based flow cytometry (reference value: 1.13%); format: functional
HCT-116 [26] = test: Induction of apoptosis in human HCT116 cells assessed as necrotic cells at 6.7 uM measured after 18 hrs by Annexin-V FITC/propidium iodide staining based flow cytometry (reference value: 2.12%); format: functional
HCT-116 [27] = test: Induction of apoptosis in human HCT116 cells assessed as appearance of half moon or crescent shape nuclei at 6.7 uM measured after 18 hrs by Hoechst 33258 staining based fluorescence inverted microscopic analysis; format: functional, cell-based
HCT-116 [28] = test: Induction of apoptosis in human HCT116 cells assessed as nuclear fragmentation at 6.7 uM measured after 18 hrs by Hoechst 33258 staining based fluorescence inverted microscopic analysis; format: functional, cell-based
HCT-116 [29] = test: Induction of apoptosis in human HCT116 cells assessed as formation of apoptotic bodies at 6.7 uM measured after 18 hrs by Hoechst 33258 staining based fluorescence inverted microscopic analysis; format: functional, cell-based

| Compound | IC50 [1] | IC50 [2] | IC50 [3] | IC50 [4] | IC50 [5] | further results |
| --- | --- | --- | --- | --- | --- | --- |
| C=C(C)[C@@H]1CC[C@]2(CO)CC[C@]3(C)[C@H](CC[C@@H]4[C@@]5(C)c6c(noc6C)C(=O)C(C)(C)[C@@H]5CC[C@]43C)[C@@H]12 | > 100 µM | 24.3 µM | 30.7 µM | 29.3 µM | > 100 µM | – |
| C=C(C)[C@@H]1CC[C@]2(C(=O)O)CC[C@]3(C)[C@H](CC[C@@H]4[C@@]5(C)Cc6c(nnc(C)[n+]6[O-])C(C)(C)[C@@H]5CC[C@]43C)[C@@H]12 | > 100 µM | > 100 µM | 1.5 µM | 1.4 µM | > 100 µM | IC50 at 72 h [6]: 2.1 µM |
| C=C(C)[C@@H]1CC[C@]2(COC(C)=O)CC[C@]3(C)[C@H](CC[C@@H]4[C@@]5(C)C=C(NC(C)=O)C(=O)C(C)(C)[C@@H]5CC[C@]43C)[C@@H]12 | 37.5 µM | > 100 µM | 21.6 µM | 83.6 µM | 33.7 µM | – |
| C=C(C)[C@@H]1CC[C@]2(COC(C)=O)CC[C@]3(C)[C@H](CC[C@@H]4[C@@]5(C)C(=O)c6nc(C)oc6C(C)(C)[C@@H]5CC[C@]43C)[C@@H]12 | 24 µM | 48.3 µM | 40.3 µM | 33.5 µM | 22.4 µM | – |
| C=C(C)[C@@H]1CC[C@]2(CO)CC[C@]3(C)[C@H](CC[C@@H]4[C@@]5(C)Cc6nn(C(C)=O)nc6C(C)(C)[C@@H]5CC[C@]43C)[C@@H]12 | 20.7 µM | 2.29 µM | 7.46 µM | 5.67 µM | 4.46 µM | IC50 at 72 h [6]: 12.7 µM; LD50 at 336 h [7]: > 600 mg/kg; Activity (HCT-116 [8]): Tde; Activity (HCT-116 [9]): Active; Activity (HCT-116 [10]): Active; viability at 5.7 µM (HCT-116 [11]): 80.9%; Activity (HCT-116 [12]): 14.87%; Activity (HCT-116 [13]): 1.04%; Activity (HCT-116 [14]): 3.14%; Activity (HCT-116 [15]): Active; Activity (HCT-116 [16]): Active; Activity (HCT-116 [17]): Active; Activity (HCT-116 [18]): Active; Activity (HCT-116 [19]): Active; Activity (HCT-116 [20]): Active |
| C=C(C)[C@@H]1CC[C@]2(CO)CC[C@]3(C)[C@H](CC[C@@H]4[C@@]5(C)C=C(NC(C)=O)C(=O)C(C)(C)[C@@H]5CC[C@]43C)[C@@H]12 | > 100 µM | > 100 µM | 10.5 µM | 5.15 µM | > 100 µM | – |
| C=C(C)[C@@H]1CC[C@]2(CO)CC[C@]3(C)[C@H](CC[C@@H]4[C@@]5(C)C/C(=N\O)C(=O)C(C)(C)[C@@H]5CC[C@]43C)[C@@H]12 | 47.5 µM | 27.6 µM | > 100 µM | 2.81 µM | 35.8 µM | – |
| C=C(C)[C@@H]1CC[C@]2(CO)CC[C@]3(C)[C@H](CC[C@@H]4[C@@]5(C)Cc6c(nnc(C)[n+]6[O-])C(C)(C)[C@@H]5CC[C@]43C)[C@@H]12 | > 100 µM | 16.2 µM | 4.5 µM | 14.3 µM | > 100 µM | – |
| C=C(C)[C@@H]1CC[C@]2(COC(C)=O)CC[C@]3(C)[C@H](CC[C@@H]4[C@@]5(C)Cc6nn(C(C)=O)nc6C(C)(C)[C@@H]5CC[C@]43C)[C@@H]12 | > 100 µM | > 100 µM | 17.8 µM | 22.5 µM | > 100 µM | – |
| C=C(C)[C@@H]1CC[C@]2(C=O)CC[C@]3(C)[C@H](CC[C@@H]4[C@@]5(C)Cc6nn(C(C)=O)nc6C(C)(C)[C@@H]5CC[C@]43C)[C@@H]12 | 53.2 µM | > 100 µM | > 100 µM | > 100 µM | 46 µM | – |
| C=C(C)[C@@H]1CC[C@]2(CO)CC[C@]3(C)[C@H](CC[C@@H]4[C@@]5(C)CCC(=O)C(C)(C)[C@@H]5CC[C@]43C)[C@@H]12 [BETULONE] | 32.9 µM | 18.2 µM | 22.5 µM | 34 µM | 13.2 µM | – |
| CC[C@@]1(O)C(=O)OCc2c1cc1n(c2=O)Cc2cc3ccccc3nc2-1 [CAMPTOTHECIN] | 5.93 µM | 1.84 µM | 3.04 µM | 6.7 µM | 1.24 µM | IC50 at 72 h [6]: 0.89 µM; Activity (HCT-116 [21]): Active; Activity (HCT-116 [22]): Active; viability at 6.7 µM (HCT-116 [23]): 80.9%; Activity (HCT-116 [24]): 12.44%; Activity (HCT-116 [25]): 1.6%; Activity (HCT-116 [26]): 5.07%; Activity (HCT-116 [27]): Active; Activity (HCT-116 [28]): Active; Activity (HCT-116 [29]): Active |
| C=C(C)[C@@H]1CC[C@]2(COC(C)=O)CC[C@]3(C)[C@H](CC[C@@H]4[C@@]5(C)c6c(noc6C)C(=O)C(C)(C)[C@@H]5CC[C@]43C)[C@@H]12 | 7.85 µM | 14 µM | 22.1 µM | 19 µM | 14.8 µM | – |
| C=C(C)[C@@H]1CC[C@]2(CO)CC[C@]3(C)[C@H](CC[C@@H]4[C@@]5(C)C(=O)c6nc(C)oc6C(C)(C)[C@@H]5CC[C@]43C)[C@@H]12 | 43.2 µM | 26.7 µM | 19.4 µM | 16 µM | > 100 µM | – |
